Test results published in patent publication US5283254A, “2-(imidazol-1-yl)-2-benzylethyldiene-aminoxyalkanoic acid derivatives” (Farmitalia Carlo Erba S.r.l., priority 1991, dated 1994).

Tests used:
TxA2 synthase [1] = settings: known compound; cited from earlier work
TxA2 Synthase [2] = target: T1, TxA2 Synthase (Rattus norvegicus, UniProt P49430); experiment: Inhibition of TxA2 synthase activity: TxB2 production in rat whole blood during clotting (serum, RIA), in vitro; format: cell-based; settings: for inhibitory activity on TxA2 synthesis (in words): rat
T1 construct: TxB2 generated in whole blood during clotting; endogenous in cells; host or cells: rat whole blood (blood cells, mainly platelets), clotted 1 h at 37 °C
T1 sequence (P49430 1-533): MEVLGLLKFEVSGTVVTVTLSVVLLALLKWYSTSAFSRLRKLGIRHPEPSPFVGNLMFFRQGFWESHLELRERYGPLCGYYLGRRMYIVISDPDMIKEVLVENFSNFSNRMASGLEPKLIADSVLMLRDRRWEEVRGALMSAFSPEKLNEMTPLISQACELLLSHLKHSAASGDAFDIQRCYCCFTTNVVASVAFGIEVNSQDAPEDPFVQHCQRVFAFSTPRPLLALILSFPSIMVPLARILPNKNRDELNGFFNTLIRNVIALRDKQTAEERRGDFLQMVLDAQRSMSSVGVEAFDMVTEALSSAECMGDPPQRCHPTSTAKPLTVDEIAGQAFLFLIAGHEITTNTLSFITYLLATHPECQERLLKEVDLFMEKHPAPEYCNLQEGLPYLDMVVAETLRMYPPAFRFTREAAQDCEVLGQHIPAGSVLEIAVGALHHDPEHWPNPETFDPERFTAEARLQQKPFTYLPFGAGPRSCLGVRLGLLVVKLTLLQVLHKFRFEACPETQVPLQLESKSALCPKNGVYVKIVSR
Method: The compounds of formula (I) were for example tested for their ability to inhibit TxA2 Synthase activity (as reflected by TxB2 generated in whole blood during clotting or in isolated glomeruli) in vitro in the rat.
The in vitro experiments were carried out as follows:
The effect of the compounds on TxA2 synthesis was evaluated in serum.
Blood was withdrawn from the abdominal aorta of the animals under light ether anesthesia.
Samples were then allowed to clot for 1 h at 37° C., centrifuged at 3000 rpm for 10 min, serum collected and stored at -20° C. until assayed. TxB2 levels were determined by RIA according to previously described procedures [Patrono et al.--Thromb. Res. 17, 3/4, 317, 1980] using highly specific antibody.

TxA2 receptor = target: T2, TxA2 receptor (Homo sapiens, UniProt P21731); experiment: [3H]-SQ 29,548 binding displacement in washed human platelets (TxA2 antagonism)
T2 construct: endogenous in cells; host or cells: washed human platelets from healthy volunteers
T2 sequence (P21731 1-343): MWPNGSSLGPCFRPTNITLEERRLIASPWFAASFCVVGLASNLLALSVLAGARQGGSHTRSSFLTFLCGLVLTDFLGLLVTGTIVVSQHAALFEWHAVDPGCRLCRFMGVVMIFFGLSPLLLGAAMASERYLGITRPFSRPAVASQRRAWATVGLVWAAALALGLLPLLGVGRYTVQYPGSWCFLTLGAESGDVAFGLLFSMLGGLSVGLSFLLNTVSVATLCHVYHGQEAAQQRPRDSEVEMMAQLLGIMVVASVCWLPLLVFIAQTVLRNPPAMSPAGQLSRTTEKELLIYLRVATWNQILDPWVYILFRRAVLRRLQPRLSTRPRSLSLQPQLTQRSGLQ
Method: Platelet rich plasma (PRP), obtained by centrifugation of the blood at 200×g for 20 min, is washed twice (1000×g for 10 min). […] For displacement experiments various concentrations (10^-9 -10^-4 M) of competing ligands were added and incubated for 30 min at 25° C.
The binding data were analysed by computerized non-linear curve fitting using the Ligand program and expressed as IC50.

Row | Structure (SMILES) | TxA2 synthase inhibitory activity (in words) (TxA2 synthase [1]) | inhibitory activity on TxA2 synthesis (in words) (TxA2 Synthase [2]) | IC50 (TxA2 Synthase [2]; rat whole blood, n = 8 replicates, limits for p = 0.95 printed on following line, clotting 1 h at 37° C.) | inhibitory activity on TxA2 synthesis (in words) (TxA2 Synthase [2]; listed as FCE 27109) | affinity for the receptor / TxA2 antagonism (in words) (TxA2 receptor) | IC50 (TxA2 receptor; 5 nM [3H]-SQ 29,548, 30 min at 25° C., pH 7.4)
1 | O=C(O)COc1ccc(CCNS(=O)(=O)c2ccccc2)cc1 [BM 13177] | devoid of TxA2 synthase inhibitory activity |  |  |  |  | 
2 | O=C(O)CCCCO/N=C(\c1ccccc1)C(Cc1ccc(F)cc1)n1ccnc1 (racemic) [FCE 27317, (±)-(E)-5-[1-phenyl-2-(imidazol-1-yl)-2-(4-fluorobenzyl)ethylidene]aminoxypentanoic acid] |  | marked inhibitory activity on TxA2 synthesis significantly more potent than that of reference compounds Dazoxiben and ASA | 0.39 µM | active as TxA2 synthase inhibitor | good affinity for the receptor better than that showed by the known compound Sulotroban (BM 13177) | 0.0387 µM
